For this experiment, the target named is T1, trypsin-activated recombinant human renin (Homo sapiens, UniProt P00797).
T1 sequence (P00797 67-406): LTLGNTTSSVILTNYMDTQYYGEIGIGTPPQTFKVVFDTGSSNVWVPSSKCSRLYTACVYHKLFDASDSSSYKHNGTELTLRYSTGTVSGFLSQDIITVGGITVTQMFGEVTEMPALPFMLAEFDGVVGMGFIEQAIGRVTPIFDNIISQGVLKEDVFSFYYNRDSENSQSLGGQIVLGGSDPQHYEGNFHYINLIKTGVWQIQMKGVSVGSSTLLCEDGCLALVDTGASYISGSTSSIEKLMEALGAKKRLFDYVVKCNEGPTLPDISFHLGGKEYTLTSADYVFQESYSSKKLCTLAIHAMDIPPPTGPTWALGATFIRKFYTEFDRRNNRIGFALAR
Description: Renin fluorescence assay (internally quenched peptide substrate). It is filed as biochemical. Conditions: compounds I*. Put shortly:
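Cleavage of an angiotensinogen-derived DABCYL-quenched peptide by trypsin-activated recombinant human renin (0.2-2 nM final) in 50 mM BES, 150 mM NaCl, 0.25 mg/mL BSA, pH 7.0; compounds 10 μM to 1 nM final. Fluorescence (ex 340/em 495 nm) followed 60-360 min at rt; linear-slope rates give percent inhibition versus uninhibited control.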
Take `CNC[C@H](CC1CCCOC1)NC(=O)N1CCC[C@@H]([C@@](O)(CCCNC(=O)OC)c2cccc(Cl)c2F)C1` (stereo partly drawn) [I*-139a, methyl (S)-4-(3-chloro-2-fluorophenyl)-4-hydroxy-4-((3R)-1-((S)-1-(methylamino)-3-(tetrahydro-2H-pyran-3-yl)propan-2-ylcarbamoyl)piperidin-3-yl)butylcarbamate]: the IC50 is less than 10 nM.
The figure for `CNC[C@H](C[C@H]1CCCCOC1)NC(=O)N1CCC[C@@H]([C@@H](OCCNC(=O)OC)c2cccc(Cl)c2F)C1` [I*-140a, methyl 2-((R)-(3-chloro-2-fluorophenyl)((R)-1-((S)-1-(methylamino)-3-((R)-oxepan-3-yl)propan-2-ylcarbamoyl)piperidin-3-yl)methoxy)ethylcarbamate] is less than 1 nM; for `CNC[C@H](C[C@H]1CCCCOC1)NC(=O)N1CCC[C@@H]([C@@H](OCCNC(=O)OC)c2cc(F)cc(Cl)c2)C1` [I*-141a, methyl 2-((R)-(3-chloro-5-fluorophenyl)((R)-1-((S)-1-(methylamino)-3-((R)-oxepan-3-yl)propan-2-ylcarbamoyl)piperidin-3-yl)methoxy)ethylcarbamate] it is less than 1 nM; for `CNC[C@H](C[C@H]1CCCOC1)NC(=O)N1CCC[C@@H]([C@@](O)(CCCNC(=O)OC)c2cccc(Cl)c2F)C1` [I*-142a, methyl (S)-4-(3-chloro-2-fluorophenyl)-4-hydroxy-4-((R)-1-((S)-1-(methylamino)-3-((R)-tetrahydro-2H-pyran-3-yl)propan-2-ylcarbamoyl)piperidin-3-yl)butylcarbamate] it is less than 10 nM.
To `CN[C@H](CNC(=O)N1CCC[C@@H]([C@@H](OCCNC(=O)OC)c2cc(F)cc(Cl)c2)C1)C[C@H]1CCCCOC1` [I*-143a, methyl 2-((R)-(3-chloro-5-fluorophenyl)((R)-1-((S)-2-(methylamino)-3-((R)-oxepan-3-yl)propylcarbamoyl)piperidin-3-yl)methoxy)ethylcarbamate] belongs less than 1 nM.
Take `CNC[C@H](CC1CCOCC1)NC(=O)N1CCC[C@@H]([C@@H](OCCNC(=O)OC)c2cccc(C(F)(F)F)c2)C1` [I*-144a, methyl 2-((R)-((R)-1-((S)-1-(methylamino)-3-(tetrahydro-2H-pyran-4-yl)propan-2-ylcarbamoyl)piperidin-3-yl)(3-(trifluoromethyl)phenyl)methoxy)ethylcarbamate]: the IC50 was greater than 50 nM.
To `CNC[C@H](CC12CC3CC(CC(C3)C1)C2)NC(=O)N1CCC[C@@H]([C@@H](OCCNC(=O)OC)c2cccc(F)c2)C1` [I*-145a, methyl 2-((R)-((R)-1-((S)-1-(1-adamantyl)-3-(methylamino)propan-2-ylcarbamoyl)piperidin-3-yl)(3-fluorophenyl)methoxy)ethylcarbamate] belongs less than 10 nM; to `CNC[C@H](CC1CCC(F)(F)CC1)NC(=O)N1CCC[C@@H]([C@@H](OCCNC(=O)OC)c2cccc(Cl)c2)C1` [I*-146a, methyl 2-((R)-(3-chlorophenyl)((R)-1-((S)-1-(4,4-difluorocyclohexyl)-3-(methylamino)propan-2-ylcarbamoyl)piperidin-3-yl)methoxy)ethylcarbamate], less than 1 nM.
The figure for `CNC[C@H](CC1CCC(F)(F)CC1)NC(=O)N1CCC[C@@H]([C@@H](OCCNC(=O)OC)c2cc(F)cc(F)c2)C1` [I*-147a, methyl 2-((R)-((R)-1-((S)-1-(4,4-difluorocyclohexyl)-3-(methylamino)propan-2-ylcarbamoyl)piperidin-3-yl)(3,5-difluorophenyl)methoxy)ethylcarbamate] is less than 1 nM; for `CNC[C@H](CC1CCOCC1)NC(=O)N1CCC[C@@H]([C@@H](OCCNC(=O)OC)c2ccc(F)c(Cl)c2F)C1` [I*-148a, methyl 2-((R)-(3-chloro-2,4-difluorophenyl)((R)-1-((S)-1-(methylamino)-3-(tetrahydro-2H-pyran-4-yl)propan-2-ylcarbamoyl)piperidin-3-yl)methoxy)ethylcarbamate] it is greater than 50 nM.
Consider `CNC[C@H](CC12CC3CC(CC1C3)C2)NC(=O)N1CCC[C@@H]([C@@H](OCCNC(=O)OC)c2cc(F)ccc2F)C1` [I*-149a, methyl 2-((R)-((R)-1-((S)-1-(3-noradamantyl)-3-(methylamino)propan-2-ylcarbamoyl)piperidin-3-yl)(2,5-difluorophenyl)methoxy)ethylcarbamate], for which the IC50 is less than 10 nM.
The figure for `CCC[C@](OCCNC(=O)OC)(c1cccc(Cl)c1)[C@@H]1CCCN(C(=O)N[C@H](CNC)CC2CCCCC2)C1` [I*-150a, methyl 2-((R)-1-(3-chlorophenyl)-1-((R)-1-((S)-1-cyclohexyl-3-(methylamino)propan-2-ylcarbamoyl)piperidin-3-yl)butoxy)ethylcarbamate] is less than 50 nM; for `CNC[C@H](CC12CC3CC(CC1C3)C2)NC(=O)N1CCC[C@@H]([C@@](C)(OCCNC(=O)OC)c2cccc(Cl)c2)C1` [I*-151a, methyl 2-((R)-1-(3-chlorophenyl)-1-((3R)-1-((S)-1-(3-noradamantyl)-3-(methylamino)propan-2-ylcarbamoyl)piperidin-3-yl)ethoxy)ethylcarbamate] it is less than 1 nM; for `CNC[C@H](CC12CC3CC(CC(C3)C1)C2)NC(=O)N1CCC[C@@H]([C@@H](OCCNC(=O)OC)c2cc(F)ccc2F)C1` [I*-152a, methyl 2-((R)-((R)-1-((S)-1-(1-adamantyl)-3-(methylamino)propan-2-ylcarbamoyl)piperidin-3-yl)(2,5-difluorophenyl)methoxy)ethylcarbamate] it is less than 10 nM.
For `CNC[C@H](CC1CCC(F)(F)CC1)NC(=O)N1CCC[C@@H]([C@@H](OCCNC(=O)OC)c2cc(F)cc(Cl)c2)C1` [I*-153a, methyl 2-((R)-(3-chloro-5-fluorophenyl)((R)-1-((S)-1-(4,4-difluorocyclohexyl)-3-(methylamino)propan-2-ylcarbamoyl)piperidin-3-yl)methoxy)ethylcarbamate], the IC50 is less than 1 nM.
Consider `CNC[C@H](C[C@H]1CCC(C)(C)OC1)NC(=O)N1CCC[C@@H]([C@@H](OCCNC(=O)OC)c2cccc(F)c2)C1` [I*-154a, methyl 2-((R)-(3-fluorophenyl)((R)-1-((S)-1-((R)-6,6-dimethyl-tetrahydro-2H-pyran-3-yl)-3-(methylamino)propan-2-ylcarbamoyl)piperidin-3-yl)methoxy)ethylcarbamate], for which the IC50 was less than 20 nM.
Regarding `CNC[C@H](C[C@H]1CCC(C)(C)OC1)NC(=O)N1CCC[C@@H]([C@@H](OCCNC(=O)OC)c2cc(F)cc(F)c2)C1` [I*-155a, methyl 2-((R)-(3,5-difluorophenyl)((R)-1-((S)-1-((R)-6,6-dimethyl-tetrahydro-2H-pyran-3-yl)-3-(methylamino)propan-2-ylcarbamoyl)piperidin-3-yl)methoxy)ethylcarbamate], the IC50 is less than 10 nM.
The figure for `CNC[C@H](C[C@H]1CCC(C)(C)OC1)NC(=O)N1CCC[C@@H]([C@@H](OCCNC(=O)OC)c2ccccc2)C1` [I*-156a, methyl 2-((R)—((R)-1-((S)-1-((R)-6,6-dimethyl-tetrahydro-2H-pyran-3-yl)-3-(methylamino)propan-2-ylcarbamoyl)piperidin-3-yl)(phenyl)methoxy)ethylcarbamate] is less than 20 nM; for `CNC[C@H](C[C@H]1CCC(C)(C)OC1)NC(=O)N1CCC[C@@H]([C@@H](OCCNC(=O)OC)c2cccc(Cl)c2)C1` [I*-157a, methyl 2-((R)-(3-chlorophenyl)((R)-1-((S)-1-((R)-6,6-dimethyl-tetrahydro-2H-pyran-3-yl)-3-(methylamino)propan-2-ylcarbamoyl)piperidin-3-yl)methoxy)ethylcarbamate] it is less than 10 nM.
To `CNC[C@H](C[C@H]1CCC2(CC2)OC1)NC(=O)N1CCC[C@@H]([C@@H](OCCNC(=O)OC)c2cccc(Cl)c2)C1` [I*-158a, methyl 2-((R)-(3-chlorophenyl)((R)-1-((S)-1-((R)-4-oxaspiro[2.5]octan-6-yl)-3-(methylamino)propan-2-ylcarbamoyl)piperidin-3-yl)methoxy)ethylcarbamate] belongs less than 10 nM.
On to `CNC[C@H](C[C@H]1CCC2(CC2)OC1)NC(=O)N1CCC[C@@H]([C@@H](OCCNC(=O)OC)c2cccc(F)c2)C1` [I*-159a, methyl 2-((R)-(3-fluorophenyl)((R)-1-((S)-1-((R)-4-oxaspiro[2.5]octan-6-yl)-3-(methylamino)propan-2-ylcarbamoyl)piperidin-3-yl)methoxy)ethylcarbamate], for which the IC50 is less than 10 nM.
To `CNC[C@H](C[C@H]1CCC2(CC2)OC1)NC(=O)N1CCC[C@@H]([C@@H](OCCNC(=O)OC)c2cc(F)cc(F)c2)C1` [I*-160a, methyl 2-((R)-(3,5-difluorophenyl)((R)-1-((S)-1-((R)-4-oxaspiro[2.5]octan-6-yl)-3-(methylamino)propan-2-ylcarbamoyl)piperidin-3-yl)methoxy)ethylcarbamate] belongs less than 1 nM.

As a reminder, the IC50 is the point on the concentration scale where inhibition reaches its midpoint.
